The test system of this experiment is Rattus norvegicus. Kind of experiment: Antihyperglycemic activity in Streptozotocin-induced diabetic Wistar rat assessed as decrease in blood glucose level at 31 mg/kg, po after 7 hrs. The format is functional. Also on record: scale not given: the % may be the effect or the level left.

On to `CC(=O)O[C@H]1CC[C@]2(C)[C@H]3CC=C4[C@@H]5CC(C)(C)CC[C@]5(C(=O)O)CC[C@@]4(C)[C@]3(C)CC[C@H]2C1(C)C` [ACETYL OLEANOLIC ACID], for which the Activity is -26.3%.
